Assay results as given in patent publication US6607727B1, “Peptides for inducing cytotoxic T lymphocyte responses to hepatitus B virus” (priority 1991, dated 2003).
Read-outs that look alike come from different tables or passages of the source.

Legend:
[1] = test system: PBMCs from a patient with acute hepatitis; test: CTL response to HBx peptide in PBMCs of a patient with acute hepatitis, HLA-A2 matched peptide-pulsed targets; assay type: cell-based, human
[2] = test system: PBMCs from a patient with acute hepatitis; test: CTL response to HBenv 348-357 peptide in PBMCs of a patient with acute hepatitis, HLA-A2 matched targets; assay type: cell-based, human
Method: The CTL induced by the HBenv 348-357 peptide were identified in PBMCs from a patient with acute hepatitis according to the procedure set forth in Example XV, except that the PMBCs were stimulated with individual peptide rather than peptide mixtures. The resulting CTL line was then tested for the ability to kill HLA-A2 matched target cells that were pulsed with the peptide or that expressed endogenous envelope antigens of ayw or adw subtypes.

[3] = test system: PBMC from HLA-A2 positive patients with acute hepatitis B; assay type: cell-based, human
[4] = biological target: T1, HLA-A2.1 (Homo sapiens, UniProt P04439, D140Y/D185E/D98H/E176V/E277Q/G131W/G231S/I119V/I121R/I166T/I218V/L300P/L318F/N151K/N90K/P208A/P217A/Q86G/Q94H/R138H/R169H/T345S); assay type: binding
T1 construct: Purified class I molecules (10 to 50 nM) were incubated at room temp. with various doses of the peptides

[5] = test system: CTL clone 3D11 (HLA A31 restricted); assay type: cell-based, human
[6] = test system: CTL clone 2D7 (HLA Aw68 restricted); assay type: cell-based, human
[7] = test system: CTL clones 3D11 and 2D7; conditions: peptide 10-3 μM to 1μM
[8] = test system: HBpol455-463 specific CTL; assay type: cell-based, human
[9] = ratio from IC50 competition with radiolabeled HBc18-27 analogue, 48 hrs, room temp.

AIRLKVFVL [HBx peptide 126-134 with the amino terminal residue substituted with alanine]
induction of specific CTL response by peptide [1]: CTL were stimulated

Gly-Leu-Ser-Pro-Thr-Val-Trp-Leu-Ser-Val (GLSPTVWLSV; printed: Gly-Leu-Ser-Pro-Thr-Val-Trp-Leu-Ser-Val) [HBenv peptide 348-357]
CTL recognition of envelope antigen of the adw subtype [2]: did not recognize the adw subtype | CTL response to target cells pulsed with peptide ([2]; effector:target cell ratio of 3:1): responded to target cells

SLYADSPSV [Pol816-824]
% 51Cr Release Mean [3]: 30% | % 51Cr Release Range [3]: 25-32% | Acute HBV patients Responders [3]: 3 | Binding affinity (HLA-A2.1 binding affinity ratio) [4]: 0.3500

STLPETTVVRR [141-151]
Clone 3D11 Restriction Element A31 Percent 51CR Release [5]: 69% | Clone 2D7 Restriction Element Aw68 Percent 51CR Release [6]: 66% | efficiency of target lysis in dose titration [7]: minimal optimally recognized epitope recognized by both of the CTL clones

YLHTLWKAGI [Pol149-158]
Acute HBV patients Responders [3]: 0 | Binding affinity (HLA-A2.1 binding affinity ratio) [4, 9]: 0.0560

GLSRYVVCL
HLA-A2 binding affinity compared with the prototype peptide GLSRYVARL [4]: greater than the prototype peptide

GVSRYVARL [variant of HBpol455-463 (ayw isolate)]
recognition by GLSRYVARL (HBpol455-463) induced CTL [8]: poorly recognized

EIRLKVFVL
induction of specific CTL response by peptide [1]: not able to induce a specific CTL response | recognition by CTL induced with the analog peptide AIRLKVFVL [1]: also recognized the peptide with the wild type sequence

WLSLLVPFV [Env335-343, reference compound]
% 51Cr Release Mean [3]: 66% | % 51Cr Release Range [3]: 21-88% | Acute HBV patients Responders [3]: 6 | Binding affinity (HLA-A2.1 binding affinity ratio) [4, 9]: 0.7200
